Experimental data as given in article PMC6839509, “Fluorescent probes towards selective cathepsin B detection and visualization in cancer cells and patient samples” (Chemical Science, 2019).

Legend:
[1] = molecular target: T1, cathepsin B in human cancer cell lines (Homo sapiens, UniProt P07858); test: Detection of active cathepsin B in cancer cells using Cy5-labeled MP-CB-2 probe (SDS-PAGE, Western blot); format: cell-based; details: A-431 cells; E-64d 25 μM; 1 μM MP-CB-2
T1 construct: we were able to label both cathepsin B active forms (single chain 29 kDa, and light chain 6 kDa); endogenous in cells; host or cells: human cancer cell lines (A-431, HCT-116, OVCAR-5, SK-OV-3, MDA-MB-231, U2-OS, PC-3, HeLa and others)
Procedure: 50 000 cells from fourteen adherent cancer cell lines were seeded into 12-well plates and allowed to attach overnight. In parallel, 50 000 cells from four non-adherent cancer cell lines were placed into 12-well plates and cultured overnight. The next day, MP-CB-2 ABP was added to the cells (1 μM final concentration) and incubated for various times (1, 4, 8, 24 hours). Next, cells were harvested, centrifuged at 500 × g for 5 min, cell pellets were washed with 1× DPBS, cells were centrifuged again at 500 × g for 5 min, and the supernatant was discarded. Finally, cell pellets were solubilized in 100 μL of 1× SDS/DTT and boiled for 5 min, cooled to room temperature and sonicated. Each sample (30 μL) was then subjected to SDS-PAGE analysis (4–12% Bis–Tris Plus 10-well gels, 200 V, 30 min), followed by protein transfer onto the membrane (0.2 μm nitrocellulose membrane, 10 V, 60 min). Ponceau S staining verified equal loading and transfer of proteins. Membranes were blocked in 2.5% BSA in TBS-T for 1 hour at room temperature. […] The images were then analyzed with the Image Studio software.
50 000 of selected cancer cells (A-431, HCT-116, OVCAR-5, SK-OV-3, MDA-MB-231, U2-OS, and PC-3) were seeded into 12-well plates and allowed to attach overnight. […] All images were analyzed with Image Studio software.

[2] = molecular target: T2, human recombinant cathepsin L (Homo sapiens, UniProt P07711); test: Kinetic parameters for inhibition (kobs/I), pseudo-first order; format: biochemical; details: inhibitor at least 5-fold excess over cathepsin, 100 μM ACC substrate, pH 5.5, 37 °C, average of at least triplicate, S.D. below 20%
T2 construct: with a 100 nM final concentration of each active cathepsin for 30 min; made in house
T2 sequence (P07711 114-333): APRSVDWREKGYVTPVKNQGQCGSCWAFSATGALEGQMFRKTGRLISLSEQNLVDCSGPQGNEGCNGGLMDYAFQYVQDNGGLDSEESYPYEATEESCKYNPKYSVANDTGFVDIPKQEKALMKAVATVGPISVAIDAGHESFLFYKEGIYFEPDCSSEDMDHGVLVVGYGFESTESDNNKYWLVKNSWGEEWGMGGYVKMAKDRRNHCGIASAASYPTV
Procedure: (§1) All kinetic experiments were performed using a CLARIOStar (BMG LABTECH) plate reader operating in fluorescence kinetic mode using 96-well plates (Corning®, Costar®). ACC-labeled fluorescent substrates were screened at 355 nm (excitation) and 460 nm (emission) wavelengths (gain 650). The cathepsin assay buffer was composed of 100 mM sodium acetate, 100 mM sodium chloride, 10 mM DTT, 1 mM EDTA, pH 5.5. All kinetic studies were performed at 37 °C.
(§2) The kinetic parameters of inhibition of three irreversible Cy5/Cy7 labeled ABPs were determined for cathepsins B, L, V, S and K, and the inhibition parameters of CA-074 and CA-074Me were determined for cathepsins B and L. The kobs/I were measured under pseudo-first order reaction conditions. Individual cathepsins were mixed with various concentrations of ABP (at least 5-fold excess over cathepsins) and 100 μM ACC fluorescent substrate. Experiments were repeated at least in triplicate, and the results are presented as an average (S.D. were below 20%).

[3] = molecular target: T3, human recombinant cathepsin B (Homo sapiens, UniProt P07858); test: as above; format: biochemical; details: inhibitor at least 5-fold excess over cathepsin, 100 μM ACC substrate, pH 5.5, 37 °C, average of at least triplicate, S.D. below 20%
T3 construct: made in house
Procedure: as §1, §2

[4] = molecular target: T4, cathepsin B in cancer cell lysates (Homo sapiens, UniProt P07858); test: Cathepsin B activity in cancer cell lysates with Ac-Cha-Leu-Glu(O-Bzl)-Arg-ACC substrate, with inhibitors; format: biochemical; details: lysates of selected cell lines (HeLa, A431, U2-OS, HCT-116, SKOV-3, MDA-MB-231); inhibitor pre-incubated 15 min; 100 μM substrate
T4 construct: we were able to label both cathepsin B active forms (single chain 29 kDa, and light chain 6 kDa); endogenous in cells; host or cells: human cancer cell lines (A-431, HCT-116, OVCAR-5, SK-OV-3, MDA-MB-231, U2-OS, PC-3, HeLa and others)
Procedure: Cell pellets from 50 000 cells were re-suspended in cathepsin assay buffer containing 0.5% Triton X-100 for cell lysis. Cell lysis was performed on ice for 30 min. After this time, cells were centrifuged at max speed for 5 min, and the supernatant (supplemented with 10 mM DTT) was used for the kinetic assay. In each assay 100 μM of cathepsin B selective substrate Ac-Cha-Leu-Glu(O-Bzl)-Arg-ACC was used, and the reaction progress was monitored for 30 min. In the experiments with inhibitors, cell lysate was pre-incubated with inhibitor for 15 min, followed by substrate addition and kinetic readout. Each measurement was performed three times and the substrate hydrolysis rate (RFU/s) in control (no inhibitor) was set to 100%, and other values were adjusted accordingly.

Structure (SMILES) | prevention of cathepsin B labeling by MP-CB-2 on pre-incubation with inhibitor [1] | kobs/I Cat-L [2] | kobs/I Cat-B [3] | inhibition of cathepsin B activity in cell lysates [4]
CCCNC(=O)[C@H]1O[C@@H]1C(=O)N[C@H](C(=O)N1CCC[C@H]1C(=O)OC)[C@@H](C)CC [CA-074Me] | completely prevented | 152 M⁻¹ s⁻¹ | 92 M⁻¹ s⁻¹ | –
CCCNC(=O)[C@H]1O[C@@H]1C(=O)N[C@H](C(=O)N1CCC[C@H]1C(=O)O)[C@@H](C)CC [CA-074] | – | n.i. | 42,000 M^-1s^-1 | completely depleted its catalytic activity
